Source: patent US4740505A, “Pyridazinyloxy (or thio) phenyl phosphates” (priority 1985, dated 1988)
Read-outs that look alike come from different tables or passages of the source.

What was measured:
[1] = Toxicological test: oral acute toxicity in mice; parameters: species or system mice (ddY-SLC strained male); conditions: mouse, in vivo, five-week aged ddY-SLC male mice
Tetranychus urticae = test: Effectiveness on Tetranychus urticae (rating of effects on kidney bean seedlings); format: in vivo; conditions: 500 ppm, 20 ml, rating based on percent decrease; for Rating of effect Day-2: 2nd day after treatment; for Rating of effect Day-7: 7th day after treatment
Procedure: Effectiveness on Tetranychus urticae
Each of the compounds listed in the following table is processed into an emulsifiable concentrate in accordance with the formulation of Example 6. The emulsifiable concentrate is diluted with water (Dyne®, a spreading agent produced by Takeda Chemical Ind. Ltd., as diluted 3,000-fold) to prepare a 500 ppm aqueous solution. Ten female adult of Tetranychus urticae are put into each kidney been seedling raised in a jiffy pot (6 cm in diameter), and left in a glass house at 28° C. for 24 hours. Each pot is taken out of the glass house; 20 ml of the aqueous solution as prepared above is spread over each kidney bean seedling. The jiffy pots are laid in the glass house again. Larvae and adult which are alive on the leaves are counted at the 2nd and 7th days after the spreading treatment. The test is repeated two times. The degrees are determined on the basis of percent decrease.

Spodoptera litura = test: Effectiveness on Spodoptera litura (mortality of 3rd instar larvae on sprayed soybean leaves); format: in vivo
Procedure: Effectiveness of Spondoptera litura
Each of the test compounds listed in the following table is processed into an emulsifiable concentrate in accordance with the formulation of Example 6. The emulsifiable concentrate is diluted with water (Dyne®, a spreading agent produced by Takeda Chemical Ind. Ltd., as diluted 3,000-fold) to prepare a 100 ppm aqueous solution.
Using a spray gun (nozzle pressure of 1 kg/cm^2 gauge), 20 ml of the aqueous 100 ppm solution is sprayed over soybean seedlings in a spraying chamber (on 10th day after germination) which have been raised in jiffy pots (6 cm in diameter). Two main leaves are respectively cut off from the seedlings 2 hours and 6 days after the spraying. Each of the leaves is put into an ice cream cup (diameter: 6 cm, depth: 4 cm), and 10 larvae of Spodoptera litura at the 3rd instar are put into each of the cups. The cups are left in a room at 25° C.; after 48 hours, dead larvae are counted. The test is repeated two times. The results are shown in terms of mortality (%) in Table 6. [formula]
The following compounds are used for controls.
The same compounds are used for controls also in the following Test Examples.

[2] = 100 ppm spray, leaves cut 6 days after spraying, dead larvae counted after 48 hours, 25° C., read-out: Mortality 6th day after spraying
[3] = 48 h, read-out: Mortality 2 hours after spraying
[4] = 100 ppm spray, leaves cut 2 hours after spraying, dead larvae counted after 48 hours, 25° C., read-out: Mortality 2 hours after spraying

Structure (SMILES) | LD50 [1] | Rating of effect Day-2 (Tetranychus urticae) | Rating of effect Day-7 (Tetranychus urticae) | mortality at 100 ppm (Spodoptera litura; [2]) | mortality at 100 ppm (Spodoptera litura; [3]) | mortality at 100 ppm (Spodoptera litura; 48 h, read-out: Mortality 6th day after spraying) | mortality at 100 ppm (Spodoptera litura; [4])
CCCSP(=S)(OCC)Oc1ccc(Oc2ccc(N(C)C)nn2)cc1 (stereo not drawn) [compound 7] | > 300 mg/kg |  |  |  |  |  | 
CCCSP(=S)(OCC)Oc1ccccc1Oc1ccc(N)nn1 (stereo not drawn) [compound 44] | > 300 mg/kg | 3 (≥90) | 3 (≥90) |  |  |  | 
CCCSP(=O)(OCC)Oc1ccc(Oc2ccc(Cl)nn2)cc1 (stereo not drawn) [Compound No. 2, O-Ethyl-S-n-propyl-O-[4-(3-chloropyridazinyl-6-oxy)phenyl]phosphorothioate] |  | 3 (≥90) | 3 (≥90) | 100% | 100% |  | 
CCCSP(=O)(OCC)Oc1ccccc1Sc1ccc(Cl)nn1 (stereo not drawn) [compound 31] | > 300 mg/kg | 3 (≥90) | 3 (≥90) |  |  |  | 
CCCSP(=S)(OCC)Oc1ccc(Sc2ccc(NC(C)CC)nn2)cc1 (stereo not drawn) [compound 12] | > 300 mg/kg |  |  |  |  |  | 
CCCSP(=S)(OCC)Oc1ccccc1Oc1ccc(Cl)nn1 (stereo not drawn) [Compound No. 30, O-Ethyl-S-n-propyl-O-[2-(3-chloropyridazinyl-6-oxy)phenyl]phosphorodithioate] | > 300 mg/kg | 3 (≥90) | 3 (≥90) | 100% | 100% |  | 
CCCSP(=O)(OCC)Oc1ccc(Oc2ccc(Cl)nn2)c(C)c1 (stereo not drawn) [compound 15] |  | 3 (≥90) | 3 (≥90) | 100% | 100% |  | 
CCOP(=O)(Oc1ccccc1Oc1ccc(Cl)nn1)SC(C)C (stereo not drawn) [compound 33] | > 300 mg/kg |  |  |  |  |  | 
CCCSP(=S)(OCC)Oc1ccc(Sc2ccc(N(C)C)nn2)cc1 (stereo not drawn) [compound 9] | > 300 mg/kg | 3 (≥90) | 3 (≥90) |  |  |  | 
CCCSP(=S)(OCC)Oc1ccc(Sc2ccc(Cl)nn2)cc1 (stereo not drawn) [compound 5] | > 300 mg/kg | 3 (≥90) | 3 (≥90) |  |  |  | 
CCCSP(=O)(OCC)Oc1ccc(Sc2ccc(N(C)C)nn2)cc1 (stereo not drawn) [compound 8] | ~300 mg/kg | 3 (≥90) | 3 (≥90) |  |  |  | 
CCCSP(=O)(OCC)Oc1cccc(Oc2ccc(Cl)nn2)c1 (stereo not drawn) [compound 18] | > 300 mg/kg | 3 (≥90) | 3 (≥90) | 100% | 100% |  | 
CCCSP(=O)(OCC)Oc1ccc(Sc2ccc(Cl)nn2)cc1 (stereo not drawn) [Compound No. 4] | > 300 mg/kg | 3 (≥90) | 3 (≥90) | 95% | 100% |  | 
CCCSP(=O)(OCC)Oc1ccccc1Oc1ccc(SCC)nn1 (stereo not drawn) [compound 41] | ~300 mg/kg | 3 (≥90) | 3 (≥90) | 100% | 100% |  | 
CCCSP(=O)(OCC)Oc1cccc(Oc2ccc(N(C)C)nn2)c1 (stereo not drawn) [Compound No. 21, O-Ethyl-S-n-propyl-O-[3-(3-dimethylaminopyridazinyl-6-oxy)phenyl]phosphorothioate] |  | 3 (≥90) | 3 (≥90) | 100% | 100% |  | 
CCCSP(=O)(OCC)Oc1ccccc1Oc1ccc(Cl)nn1 (stereo not drawn) [Compound No. 29, O-Ethyl-S-n-propyl-O-[2-(3-chloropyridazinyl-6-oxy)phenyl]phosphorothioate] |  | 3 (≥90) | 3 (≥90) |  | 100% | 90% | 
CCCSP(=O)(OCC)Oc1ccccc1Sc1ccc(N(C)C)nn1 (stereo not drawn) [compound 45] |  | 3 (≥90) | 3 (≥90) |  |  |  | 

Structure (SMILES) | LD50 [1] | Rating of effect Day-2 (Tetranychus urticae) | Rating of effect Day-7 (Tetranychus urticae) | mortality at 100 ppm (Spodoptera litura; [2]) | mortality at 100 ppm (Spodoptera litura; [3]) | mortality at 100 ppm (Spodoptera litura; 48 h, read-out: Mortality 6th day after spraying) | mortality at 100 ppm (Spodoptera litura; [4])
CCCSP(=O)(OCC)Oc1cccc(Oc2cccnn2)c1 (stereo not drawn) [compound 17] |  | 3 (≥90) | 3 (≥90) | 100% | 100% |  | 
CCOP(=O)(Oc1ccccc1Oc1ccc(Cl)nn1)SC(C)CC (stereo not drawn) [compound 36] |  |  |  | 100% | 100% |  | 
CCCSP(=S)(OCC)Oc1ccccc1Sc1ccc(NC(C)CC)nn1 (stereo not drawn) [compound 46] | > 300 mg/kg | 3 (≥90) | 3 (≥90) |  |  |  | 
COP(=S)(OC)Oc1ccc([N+](=O)[O-])c(C)c1 [Fenitrothion, reference compound] |  | 3 (≥90) | 0 (≤20) | 0% |  |  | 80%
CCC(C)SP(=O)(OC)Oc1ccccc1Oc1ccc(Cl)nn1 (stereo not drawn) [Compound No. 27, O-Methyl-S-sec-butyl-O-[2-(3-chloropyridazinyl-6-oxy)phenyl]phosphorothioate] |  | 3 (≥90) | 3 (≥90) | 100% | 100% |  | 
CCCSP(=O)(OCC)Oc1ccccc1Oc1ccc(C)nn1 (stereo not drawn) [compound 37] |  | 3 (≥90) | 3 (≥90) |  |  |  | 
CCCSP(=O)(OCC)Oc1ccc(Oc2ccc(N(C)C)nn2)cc1 (stereo not drawn) [compound 6] |  |  |  | 90% | 100% |  | 
CCC(C)SP(=O)(OC)Oc1ccccc1Sc1ccc(Cl)nn1 (stereo not drawn) [compound 28] |  | 3 (≥90) | 3 (≥90) | 95% | 100% |  | 
CCCSP(=S)(OCC)Oc1ccc(Oc2ccc(NC(C)CC)nn2)cc1 (stereo not drawn) [compound 10] | > 300 mg/kg |  |  |  |  |  | 
CCC(C)SP(=O)(OC)Oc1ccc(Oc2ccc(Cl)nn2)c(C)c1 (stereo not drawn) [compound 14] |  | 3 (≥90) | 3 (≥90) |  |  |  | 
CCCSP(=O)(OCC)Oc1ccccc1Oc1ccc(N)nn1 (stereo not drawn) [compound 43] |  | 3 (≥90) | 3 (≥90) |  |  |  | 
CCCSP(=S)(OCC)Oc1ccc(Cl)cc1Cl (stereo not drawn) [Prothiophos, reference compound] |  | 3 (≥90) | 0 (≤20) | 10% |  |  | 100%
CCCSP(=O)(OCC)Oc1ccc(Oc2ccc(N(C(C)=O)C(C)CC)nn2)cc1 (stereo not drawn) [compound 13] |  | 3 (≥90) | 3 (≥90) |  |  |  | 
CCCSP(=O)(OCC)Oc1ccc(Sc2ccc(NC(C)CC)nn2)cc1 (stereo not drawn) [compound 11] | > 300 mg/kg |  |  |  |  |  | 
CCCSP(=O)(OCC)Oc1ccc(Oc2cccnn2)cc1 (stereo not drawn) [compound 1] |  | 3 (≥90) | 3 (≥90) | 90% | 100% |  | 
CCCSP(=O)(OCC)Oc1cccc(Oc2ccc(NC(C)CC)nn2)c1 (stereo not drawn) [compound 22] |  |  |  | 100% | 100% |  | 
CCCSP(=S)(OCC)Oc1ccccc1Sc1ccc(Cl)nn1 (stereo not drawn) [Compound No. 32, O-Ethyl-S-n-propyl-O-[2-(3-chloropyridazinyl-6-thio)phenyl]phosphorodithioate] | > 300 mg/kg | 3 (≥90) | 3 (≥90) |  |  |  | 
